Decrease in affinity, MIC and melting point data for 24 compounds are collected here from patent US7612036B2, “Peptoid compounds” (University of Wollongong, priority 2001, dated 2009).

Values after ≈ are worked out from the molar mass of the structure shown.

The first series deals with D-Ala-D-lactate terminus of the peptidoglycan.
Experiment: not given
Particulars: D-Ala-D-lactate terminus versus D-Ala-D-Ala terminus; cited from earlier work.
On to `CN[C@H](CC(C)C)C(=O)N[C@H]1C(=O)N[C@@H](CC(N)=O)C(=O)N[C@H]2C(=O)N[C@H]3C(=O)N[C@H](C(=O)N[C@H](C(=O)O)c4cc(O)cc(O)c4-c4cc3ccc4O)[C@H](O)c3ccc(c(Cl)c3)Oc3cc2cc(c3O[C@@H]2O[C@H](CO)[C@@H](O)[C@H](O)[C@H]2O[C@H]2C[C@](C)(N)[C@H](O)[C@H](C)O2)Oc2ccc(cc2Cl)[C@H]1O` [Vancomycin], for which the decrease in affinity result was “ca. 1000 fold”.

A further series deals with Staphylococcus aureus (ATCC 6538P). In words: Antibacterial screen (MIC, 96 well microtitre broth dilution) against S. aureus. The series is classed as cell-based. Particulars: 37° C. for 18 hours, highest dilution of compound that prevented bacterial growth. As to the method: General Methods for Antibacterial Screens
• SA: Staphylococcus aureus • PA: Pseudomonas aeruginosa • KP: Klebsiella pneumoniae • SP: Streptococcus pneumoniae Bacterial Strains Used: • Staphylococcus aureus (ATCC 6538P) • Pseudonmonas aeruginosa (ATCC 27853) • Klebsiella pneumoniae (IP103623) • Streptococcus pneumoniae (IP53146) Culture Media
Mueller-Hinton Broth Medium (MHB): MHB (Oxoid CM405) was prepared with final concentrations of 1 μg/mL MgCl2 and 2 μg/mL CaCl2. Culture medium was pre-warmed for approximately 2-3 hours at 37° C. before use.
From thawed cryovials, P. aeruginosa, K. pneumoniae and S. aureus were streaked onto Mueller Hinton Agar (MHA), and S. pneumoniae was streaked onto Blood Agar (BA), and plates were incubated overnight at 37° C. For each bacterial strain, 10 cryovials were prepared by looping several colonies into 0.5 mL of 20% glycerol solution. The cryovials were immediately stored at −140° C.
A cryovial was removed from −140° C. storage and thawed at room temperature. An MHA plate was streaked with a loopful of bacterial suspension and incubated overnight at 37° C. to create a parent plate (P1). A daughter plate (D1) was streaked from the parent plate and incubated overnight at 37° C. The parent plate was stored at 4° C. A loop of colony from the daughter plate was used to inoculate a 125 mL flask containing 20 mL of Mueller Hinton Broth (MHB) containing 25 μg/mL CaCl2.2H2O and 12.5 μ/mL MgCl2.6H2O. The flask was shaken at 260 rpm for 18 hours at 37° C. on an orbital incubator shaker. The parent plate (P1) was reused within 9 days to generate another daughter plate (D2), which, in turn, was used to inoculate a broth culture. Parent plates were used twice (to generate D1 and D2 plates) before a new one was prepared from the previously thawed cryovial. The second parent plate (P2) was used to generate two additional daughter plates using the procedure outlined above before being discarded. Cryovials were used twice to prepare parent plates (P1 and P2) before being discarded.
Prepare a 1/10 dilution of Seed Cultures by adding 250 μl of the cultures to 2,250 μl of MHB in a disposable cuvette. Read OD650 and multiply OD650 by a factor of 10 to calculate the optical density of the undiluted culture. Calculate the required dilution factor by dividing the observed OD650 by the standard OD650 for each strain (previously determined in assay optimisation studies).
Prepare sufficient volumes of the final inoculum cultures in pre-warmed MHB (37° C.) by diluting the standardised cultures to the required final concentration. The final dilutions used for each of the bacterial strains were as follows: • K. pneumoniae—10^6 dilution; • P. aeruginosa—10^6 dilution; • S. aureus—10^8 dilution; • S. pneumoniae—10^4 dilution. Assay Procedure (for 96 well Microtiter Plates)
Add 50 microliters of liquid medium to each well of a 96 well microtitre plate. Dissolve test samples in liquid medium. Add 50 microliters of test sample in triplicate to the top row of the microtitre plate, and include a vancomycin control set. Also include a compound negative control well set. Allow inoculated culture medium to incubate at 37° C. for 30 minutes, shaking at 130 rpm. Using a multichannel pipette, mix the contents of the first row and transfer 50 microliters of mixed broth solutions to the next row, change tips and repeat until the last row contains diluted compound or control and discard 50 microliters from the last row. Each well should now contain 50 microliters of diluted compound or negative control medium. Using a multistepper pipette add 50 microliters of inoculum to each well of the plate, save for one row containing the compound negative control, to this row add 50 microliters of liquid broth. Incubate plates at 37° C. for 18 hours, shaking at 100 rpm in an environment of approximately 90% relative humidity. Results were recorded as the highest dilution of compound that prevented bacterial growth (MIC).
For the compound “6-Acetamido-8,11-diaza-9-(3-guanidinopropyl)-12-methoxycarbonyl-7,10-dioxo-[12](3,6)-1H-carbazolophane HCl (9R,12S) [Example 38]”, the MIC was found to be 32 µg/mL.
On to “6-Acetamido-8,11-diaza-9-(3-guanidinopropyl)-12-methoxycarbonyl-7,10-dioxo-[12](3,6)-1H-carbazolophane HCl (9S,12S) [Example 36]”, for which the minimum inhibitory concentration (MIC) worked out at 32 µg/mL.
Same read-out and setting: the figure for “6-Acetamido-8,11-diaza-14-ene-9-(3-guanidinopropyl)-12-methoxycarbonyl-7,10-dioxo-[12](3,6)-1H-carbazolophane HCl (9R,12S) [Example 37]” is 64 µg/mL; for “6-Acetamido-9-(4-aminobutyl)-8,11-diaza-1-tert-butoxycarbonyl-14-ene-12-methoxycarbonyl-7,10-dioxo-[12](3,6)-1H-carbazolophane HCl (9S,12S) [Example 39A]” it is 32 µg/mL; for “6-Acetamido-9-(4-aminobutyl)-8,11-diaza-12-methoxycarbonyl-7,10-dioxo-[12](3,6)-1H-carbazolophane HCl (9R,12S) [Example 42]” it is 64 µg/mL.
Same read-out and setting: the figure for “6-Acetamido-9-(4-aminobutyl)-8,11-diaza-12-methoxycarbonyl-7,10-dioxo-[12](3,6)-1H-carbazolophane HCl (9S,12S) [Example 40]” is 64 µg/mL; for `COC(=O)C1CC=CCc2cc3ccccc3c(c2OC)-c2c(OC)c(cc3ccccc23)CC(NC(C)=O)C(=O)NC(CCCCN)C(=O)N1.Cl` (single isomer, unassigned) [15 (one isomer)] it is 8 µg/mL.
Still for that read-out and setting: the figure for `CCCc1ccc2[nH]c3ccc(CC(NC(C)=O)C(=O)N[C@H](CCCCN)C(=O)N[C@@H](CCC)C(=O)OC)cc3c2c1.Cl` (single isomer, unassigned) [44 (another isomer)] is 64 µg/mL; for `CCCc1ccc2[nH]c3ccc(CC(NC(C)=O)C(=O)N[C@H](CCCCN)C(=O)N[C@@H](CCC)C(=O)OC)cc3c2c1.Cl` (single isomer, unassigned) [44 (one isomer)] it is 32 µg/mL.
`C=CCc1cc2ccccc2c(-c2c(OC)c(CC(NC(C)=O)C(=O)N[C@H](CCCCNC(=O)OC(C)(C)C)C(=O)N[C@@H](CC=C)C(=O)OCc3ccccc3)cc3ccccc23)c1OC` (stereo partly drawn) [Example 13A, benzyl (aR/S,2S,5R)-8-acetamido-2-allyl-9-{3-[3′-allyl-2,2′-dimethoxy-1,1′-binaphthyl]}-3,6-diaza-5-(4-{[(tert-butoxy)carbonyl]amino}butyl)-4,7-dioxononanoate] registered an MIC of 4 µg/mL (≈ 4.45 µM).
`COC(=O)C1CCCCc2cc3ccccc3c(c2OC)-c2c(OC)c(cc3ccccc23)CC(NC(C)=O)C(=O)NC(CCCCN)C(=O)N1.Cl` [Example 15A, (aR/S,7R,10S)-4-acetamido-7-(4-aminobutyl)-6,9-diaza-10-methoxycarbonyl-1(1,3),2(1,3)-di(2-methoxynaphthalena)-5,8-dioxocyclotetradecaphane hydrochloride] registered a minimal inhibitory concentration (MIC) of 16 µg/mL.
For `C=CCc1cc2ccccc2c(-c2c(OC)c(CC(NC(C)=O)C(=O)N[C@H](CCCNC(=N)N)C(=O)N[C@@H](CC=C)C(=O)OC)cc3ccccc23)c1OC.Cl` (stereo partly drawn) [Example 19A, methyl (aR/S,2S,5R)-8-acetamido-2-allyl-9-[3-(3′-allyl-2,2′-dimethoxy-1,1′-binaphthyl)]-3,6-diaza-5-(3-guanidinopropyl)-4,7-dioxononanoate hydrochloride], the MIC amounted to 4 µg/mL.
The compound `COC(=O)[C@@H]1CC=CCOc2ccc3ccccc3c2-c2c(ccc3ccccc23)OCC(=O)N[C@H](CCCCNC(=N)N)C(=O)N1.Cl` [Example 103, (aR,S,7R,10S)-6,9-diaza-3,15-dioxa-5,8-dioxo-7-(4-guanidinobutyl)-10-methoxycarbonyl-1(1,2),2(1,2)-dinaphthalenacyclopentadecaphane-12-ene hydrochloride] returned an MIC of 8 µg/mL.
Still for that read-out and setting: next, `C=CCOc1ccc2ccccc2c1-c1c(OCCCC(=O)N[C@H](CCCCNC(=N)N)C(=O)N[C@@H](CC=C)C(=O)OC)ccc2ccccc12.Cl` [Example 111, methyl (aS/R,2S,5R)-2-allyl-10-(2′-allyloxy-1,1′-binaphth-2-oxy)-3,6-diaza-5-(4-guanidinobutyl)-4,7-dioxodecanoate hydrochloride]: 8 µg/mL; `COC(=O)C1CCC=COc2ccc3ccccc3c2-c2c(ccc3ccccc23)OCCCC(=O)NC(CCCCNC(=N)N)C(=O)N1.Cl` [Example 113, (aR/S,9R,12S)-8,11-diaza-9-(4-guanidinobutyl)-12-methoxycarbonyl-1(1,2),2(1,2)-dinaphthalena-3,17-dioxa-7,10-dioxoheptadecaphane-15-ene hydrochloride]: 8 µg/mL.
On the same count and under the same terms, the figure for “(aR/S,7R,10S)-4-acetamido-6,9-diaza-10-benzyloxycarbonyl-7-(4-{[(tert-butoxy)carbonyl]amino}butyl)-1(1,3),2(1,3)-di(2-methoxynaphthalena)-5,8-dioxocyclotetradecaphane-12-ene [Example 15B]” is 16 µg/mL; for “methyl (aR/S,2S,5R)-2-allyl-5-[2-({[(2′-allyloxy-1,1′-binaphthoxymethyl]carbonyl}amino)-3-aza-9-guanidino-4-oxononanoate hydrochloride [Example 101]” it is 8 µg/mL.

Still in this series, the particulars now being: 37° C. for 18 hours, highest dilution of compound that prevented bacterial growth, hydrochloride.
Regarding `COC(=O)C1CC=CCc2cc3ccccc3c(c2OC)-c2c(OC)c(cc3ccccc23)CC(NC(C)=O)C(=O)NC(CCCNC(=N)N)C(=O)N1.Cl` (single isomer, unassigned) [21A (another isomer)], the MIC amounted to 64 µg/mL.
For the compound `COC(=O)C1CC=CCc2cc3ccccc3c(c2OC)-c2c(OC)c(cc3ccccc23)CC(NC(C)=O)C(=O)NC(CCCNC(=N)N)C(=O)N1.Cl` (single isomer, unassigned) [21A (one isomer)], the MIC worked out at 16 µg/mL.

The same series, now with this note: Staphylococcus aureus, ATCC6538P, 37° C. for 18 hours, highest dilution of compound that prevented bacterial growth, read-out: MIC.
In the case of `C=CCOc1ccc2ccccc2c1-c1c(OCC(=O)N[C@H](CCCCN)C(=O)N[C@@H](CC=C)C(=O)OC)ccc2ccccc12.Cl` [Example 97], the minimum inhibitory concentration (MIC) came out at 4 µg/mL.
Take `C=CCOc1ccc2ccccc2c1-c1c(OCCCC(=O)N[C@H](CCCCN)C(=O)N[C@@H](CC=C)C(=O)OC)ccc2ccccc12.Cl` [Example 107, methyl (aS/R,2S,5R)-2-allyl-10-(2′-allyloxy-1,1′-binaphth-2-oxy)-5-(4-aminobutyl)-3,6-diaza-4,7-dioxodecanoate hydrochloride]: the MIC was found to be 16 µg/mL.
In the case of `COC(=O)[C@@H]1C/C=C/COc2ccc3ccccc3c2-c2c(ccc3ccccc23)OCCCC(=O)N[C@H](CCCCN)C(=O)N1.Cl` [Example 109], the minimal inhibitory concentration (MIC) was found to be 64 µg/mL.

Test system in the next series: not given
Experiment: not given
Conditions: not given
`C=CC[C@H](NC(=O)[C@H](CCCCN)NC(=O)Cc1cn(CC=C)c2ccccc12)C(=O)OC`: the melting point fell in the range of 103 to 106 °C.
